Measured values from the supplement of paper PMC10307832.

Compound: O=C(Nc1cccc(C(F)(F)F)c1)Nc1cc(S(=O)(=O)NC2CC2)ccc1-c1ccsc1 [AGI-6780] + Cc1cc(Nc2cc(N3CCN(C)CC3)nc(Sc3ccc(NC(=O)C4CC4)cc3)n2)n[nH]1 [Tozasertib] (partner 0.1 µM)
Assay: relative viability (nuclei count vs DMSO), 5 days (fraction); higher = more cells survive
Method in brief: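 After 5 days of treatment, lung cancer cells in 1536-well plates were fixed and stained in a single step (final 0.05% Triton X-100, 1% formaldehyde, 1 ug/ml Hoechst) and their nuclei counted on 4× images. Treatment had been applied by pin tool the day after seeding as one drug alone or as a fixed anchor-drug dose with five library-drug doses (not always all listed) in √10 steps. Relative viability is the nuclei count of treated wells divided by that of vehicle wells, and values are medians of duplicate plates.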

Cell Line	relative viability (first compound 0.08 µM)	relative viability (first compound 0.253 µM)	relative viability (first compound 0.8 µM)	relative viability (first compound 2.53 µM)	relative viability (first compound 8 µM)
201T	0.916	0.95	0.938	0.835	0.968
A-427	0.264	0.217	0.19	0.154	0.168
ABC-1	0.186	0.212	0.17	0.206	0.167
BEN	0.526	0.497	0.503	0.433	0.425
CAL-12T	0.389	0.32	0.3	0.276	0.31
COR-L23	0.224	0.216	0.206	0.213	0.178
COR-L 105	0.402	0.357	0.388	0.336	0.441
ChaGo-K-1	0.238	0.229	0.221	0.197	0.222
EKVX	0.349	0.39	0.412	0.335	0.366
EMC-BAC-2	0.278	0.295	0.249	0.253	0.324
EPLC-272H	–	0.307	0.281	0.187	0.257
H3255	0.593	0.52	0.462	0.585	0.552
HARA	0.0824	0.106	0.114	0.0867	0.111
HCC-15	0.625	0.438	0.547	0.186	0.458
HCC-44	0.831	1.02	1.25	0.981	0.814
HCC-78	–	0.404	0.452	0.304	0.438
HCC-366	0.102	0.184	0.0941	0.0598	0.0437
HCC-827	0.226	0.433	0.41	0.405	0.432
HOP-62	0.328	0.366	0.398	0.302	0.408
LC-2-ad	0.433	0.477	0.447	0.327	0.468
LCLC-97TM1	0.217	0.265	0.291	0.195	0.197
LCLC-103H	0.492	0.475	0.51	0.451	0.562
LK-2	0.178	0.16	0.147	–	0.162
LOU-NH91	0.725	0.642	0.63	0.583	0.64

Cell Line	relative viability (first compound 0.08 µM)	relative viability (first compound 0.253 µM)	relative viability (first compound 0.8 µM)	relative viability (first compound 2.53 µM)	relative viability (first compound 8 µM)
LU99A	0.237	0.275	0.294	0.237	0.299
LXF-289	0.201	0.225	0.152	0.131	0.25
NCI-H23	0.347	0.365	0.35	0.379	0.343
NCI-H322M	0.517	0.508	0.493	0.425	0.515
NCI-H358	0.11	0.108	0.112	0.105	0.11
NCI-H441	0.608	0.733	0.474	0.415	0.599
NCI-H460	0.537	0.453	0.491	0.349	0.176
NCI-H520	0.486	0.441	0.426	0.327	0.446
NCI-H522	0.485	0.5	0.606	0.534	0.53
NCI-H596	0.839	0.898	0.725	–	0.983
NCI-H647	0.299	0.302	0.37	0.181	0.281
NCI-H650	0.749	0.747	0.72	0.642	0.7
NCI-H661	0.367	0.36	0.357	0.345	0.354
NCI-H727	0.583	0.568	0.669	0.722	0.681
NCI-H838	0.321	0.244	0.295	0.276	0.224
NCI-H1355	0.594	0.575	0.562	0.41	0.45
NCI-H1395	0.778	0.774	0.893	0.666	0.674
NCI-H1437	0.486	0.42	0.428	0.408	0.391
NCI-H1648	0.45	0.581	0.639	0.401	0.378
NCI-H1650	0.367	0.432	0.442	0.381	0.293
NCI-H1651	0.785	0.601	0.591	0.429	0.693
NCI-H1666	0.603	0.616	0.611	0.503	0.563
NCI-H1734	0.22	0.294	0.246	0.242	0.268
NCI-H1755	0.664	0.627	0.517	0.436	0.557

Cell Line	relative viability (first compound 0.08 µM)	relative viability (first compound 0.253 µM)	relative viability (first compound 0.8 µM)	relative viability (first compound 2.53 µM)	relative viability (first compound 8 µM)
NCI-H1793	0.355	0.318	0.351	0.332	0.312
NCI-H1915	0.432	0.418	0.469	0.282	0.428
NCI-H1944	0.252	0.27	0.247	–	0.242
NCI-H1975	0.9	0.819	0.738	–	0.474
NCI-H1993	0.547	0.588	0.623	0.464	0.536
NCI-H2009	0.605	0.725	0.845	0.701	0.683
NCI-H2023	0.329	0.48	0.358	0.212	0.25
NCI-H2085	0.755	0.736	0.779	0.809	0.61
NCI-H2087	0.288	0.213	0.224	0.27	0.284
NCI-H2126	0.82	0.838	0.89	0.726	0.857
NCI-H2170	0.687	0.752	0.665	0.546	0.814
NCI-H2228	0.281	0.278	0.228	0.226	0.201
NCI-H2342	0.56	0.52	0.593	0.43	0.597
NCI-H2347	0.596	0.644	0.518	0.373	0.644
NCI-H2405	0.813	0.728	0.565	0.766	0.661
NCI-H3122	0.373	0.398	0.445	0.298	0.389
PC-3 [JPC-3]	0.943	0.859	0.94	0.858	0.813
PC-14	0.57	0.583	0.658	0.582	0.569
RERF-LC-KJ	0.506	0.619	0.461	0.452	0.34
SK-LU-1	0.309	0.318	–	0.279	0.327
SK-MES-1	1.02	0.961	1	0.88	0.747
SW 1573	0.175	0.261	0.254	–	0.139
UMC-11	0.197	0.198	0.206	–	0.192
